In patent US20240350643A1, “PROTEIN DEGRADATION AGENT” (SUZHOU KINTOR PHARMACEUTICALS, INC., priority 2021, published 2024) one finds inhibition and IC50 data, which are given here for 34 molecules.

One assay concerns the target T1, c-Myc protein (Homo sapiens, UniProt P01106).
T1 construct: endogenous in cells; host or cells: HL60 cells
The experiment in a line: Ability of compounds to degrade c-Myc protein in HL60 cells (ELISA). The format is cell-based. The conditions noted are these: HL-60, 1 μM compound, 24 h, read-out: HL60 cells Protein degradation rate (1 μM). For orientation: In an ELISA, binding on a coated surface is turned into a signal by an enzyme label.

The test system of another assay is HL60 cells. The experiment in a line: Anti-proliferation ability of compounds on HL60 cells (CTG). The conditions noted are these: Homo sapiens, HL-60, 72 h, 3 days, CellTiter-Glo, read-out: HL60 cells Proliferation inhibitory activity. Format: cell-based, human. A digest of the protocol:
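Proliferation inhibition IC50 derived from CellTiter-Glo luminescence after 3-day compound treatment of HL60 cells plated at 20000 per well, against 0.1% DMSO controls.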

T1 sequence (P01106 whole entry): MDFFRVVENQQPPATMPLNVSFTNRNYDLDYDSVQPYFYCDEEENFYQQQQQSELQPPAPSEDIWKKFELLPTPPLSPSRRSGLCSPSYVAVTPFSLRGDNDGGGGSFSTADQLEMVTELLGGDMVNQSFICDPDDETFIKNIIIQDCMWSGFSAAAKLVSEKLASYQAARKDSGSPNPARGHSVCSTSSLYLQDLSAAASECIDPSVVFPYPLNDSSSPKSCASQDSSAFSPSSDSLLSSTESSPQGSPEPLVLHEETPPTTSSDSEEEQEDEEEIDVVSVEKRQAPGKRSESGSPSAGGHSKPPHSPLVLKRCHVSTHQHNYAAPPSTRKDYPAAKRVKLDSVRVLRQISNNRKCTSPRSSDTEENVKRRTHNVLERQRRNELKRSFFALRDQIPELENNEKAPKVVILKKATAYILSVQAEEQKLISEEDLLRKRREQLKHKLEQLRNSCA

With `CN(CCn1c2ccccc2c2cccnc21)Cc1ccc(CNC(=O)c2ccc3c(c2)C(=O)N(C2CCC(=O)NC2=O)C3=O)cc1F` (centres unmarked) [A110], the inhibition at 1 µM at c-Myc protein was in the range of 60 to 90%. The IC50 with HL60 cells amounted to 4.4 nM.

As to `COc1cc(CNC(=O)Cc2cccc3ccccc23)ccc1CNC(=O)c1ccc2c(c1)C(=O)N(C1CCC(=O)NC1=O)C2=O` (centres unmarked) [A111], on c-Myc protein, the inhibition at 1 µM lay within 60 to 90%. Also, in the assay with HL60 cells, the IC50 was found to be 57.6 ± 25.9 nM.

Consider `COc1cc(CNC(=O)Cn2c3ccccc3c3cccnc32)ccc1CNC(=O)c1ccc2c(c1)C(=O)N(C1CCC(=O)NC1=O)C2=O` (centres unmarked) [A112], for which, on c-Myc protein, the inhibition at 1 µM fell in the range of 60 to 90%. In the assay with HL60 cells, the IC50 worked out at 3 ± 0.1 nM.

As to `COc1cc(CN(C)CCc2cccc3ccccc23)ccc1CNC(=O)c1ccc2c(c1)C(=O)N(C1CCC(=O)NC1=O)C2=O` (centres unmarked) [A113], at c-Myc protein, the inhibition at 1 µM is 60 to 90%. The IC50 with HL60 cells turned out to be 4.4 ± 3.2 nM.

With `COc1cc(CN(C)CCn2c3ccccc3c3cccnc32)ccc1CNC(=O)c1ccc2c(c1)C(=O)N(C1CCC(=O)NC1=O)C2=O` (centres unmarked) [A114], at c-Myc protein, the inhibition at 1 µM was 60 to 90%. Besides, in the assay with HL60 cells, the IC50 came out at 6.5 ± 0.3 nM.

Regarding `COc1cc(CNC(=O)c2ccc3c(c2)C(=O)N(C2CCC(=O)NC2=O)C3=O)ccc1CNC(=O)Cc1cccc2ccccc12` (centres unmarked) [A115], on c-Myc protein, the inhibition at 1 µM lay in the range of 60 to 90%. The IC50 in the assay with HL60 cells amounted to 8.6 ± 1.8 nM.

As for `COc1cc(CNC(=O)c2ccc3c(c2)C(=O)N(C2CCC(=O)NC2=O)C3=O)ccc1CNC(=O)Cn1c2ccccc2c2cccnc21` (centres unmarked) [A116], the inhibition at 1 µM on c-Myc protein lay within 60 to 90%. In addition, the IC50 in the assay with HL60 cells was determined as 5.5 ± 3.3 nM.

Turning to `O=C(Cc1cccc2ccccc12)NCc1ccc(CNC(=O)c2ccc3c(c2)C(=O)N(C2CCC(=O)NC2=O)C3=O)c(C(F)(F)F)c1` (centres unmarked) [A117], the inhibition at 1 µM at c-Myc protein was 60 to 90%. Moreover, in the assay with HL60 cells, the IC50 worked out at 13.8 ± 4 nM.

Regarding `O=C(Cn1c2ccccc2c2cccnc21)NCc1ccc(CNC(=O)c2ccc3c(c2)C(=O)N(C2CCC(=O)NC2=O)C3=O)c(C(F)(F)F)c1` (centres unmarked) [A118], the inhibition at 1 µM on c-Myc protein was 60 to 90%. Further, in the assay with HL60 cells, the IC50 was determined as 18.2 ± 11.4 nM.

On to `CN(CCc1cccc2ccccc12)Cc1ccc(CNC(=O)c2ccc3c(c2)C(=O)N(C2CCC(=O)NC2=O)C3=O)c(C(F)(F)F)c1` (centres unmarked) [A119], for which the inhibition at 1 µM on c-Myc protein was in the range of 60 to 90%. Moreover, the IC50 in the assay with HL60 cells was found to be 44.4 ± 0.3 nM.

Turning to `CN(CCn1c2ccccc2c2cccnc21)Cc1ccc(CNC(=O)c2ccc3c(c2)C(=O)N(C2CCC(=O)NC2=O)C3=O)c(C(F)(F)F)c1` (centres unmarked) [A120], the inhibition at 1 µM on c-Myc protein is 60 to 90%. Further, in the assay with HL60 cells, the IC50 amounted to 17.8 ± 4.9 nM.

Consider `O=C(Cc1cccc2ccccc12)NCc1ccc(CNC(=O)c2ccc3c(c2)C(=O)N(C2CCC(=O)NC2=O)C3=O)cc1C(F)(F)F` (centres unmarked) [A121], for which, on c-Myc protein, the inhibition at 1 µM lay in the range of 60 to 90%. For the same molecule, in the assay on HL60 cells, the IC50 was 6.3 ± 3 nM.

Turning to `O=C(Cn1c2ccccc2c2cccnc21)NCc1ccc(CNC(=O)c2ccc3c(c2)C(=O)N(C2CCC(=O)NC2=O)C3=O)cc1C(F)(F)F` (centres unmarked) [A122], the inhibition at 1 µM on c-Myc protein is 60 to 90%. Also, the IC50 with HL60 cells is 5.9 ± 3.9 nM.

With `CN(CCn1c2ccccc2c2cccnc21)Cc1ccc(CNC(=O)c2ccc3c(c2)C(=O)N(C2CCC(=O)NC2=O)C3=O)cc1C(F)(F)F` (centres unmarked) [A123], the inhibition at 1 µM on c-Myc protein fell in the range of 60 to 90%. Moreover, the IC50 with HL60 cells is 35.2 ± 9.3 nM.

For `O=C(Cc1cccc2ccccc12)NCc1ccc(CNC(=O)c2ccc3c(c2)C(=O)N(C2CCC(=O)NC2=O)C3=O)nc1` (centres unmarked) [A124], the inhibition at 1 µM at c-Myc protein lay within 10 to 30%. For the same molecule, the IC50 with HL60 cells stood at 1100 ± 295 nM.

For the molecule `O=C(Cn1c2ccccc2c2cccnc21)NCc1ccc(CNC(=O)c2ccc3c(c2)C(=O)N(C2CCC(=O)NC2=O)C3=O)nc1` (centres unmarked) [A125], the inhibition at 1 µM on c-Myc protein lay in the range of 60 to 90%. Also, the IC50 with HL60 cells was 26.1 ± 2 nM.

As to `CN(CCc1cccc2ccccc12)Cc1ccc(CNC(=O)c2ccc3c(c2)C(=O)N(C2CCC(=O)NC2=O)C3=O)nc1` (centres unmarked) [A126], the inhibition at 1 µM at c-Myc protein lay in the range of 60 to 90%. Also, the IC50 with HL60 cells is 8.5 ± 0.4 nM.

Consider `CN(CCn1c2ccccc2c2cccnc21)Cc1ccc(CNC(=O)c2ccc3c(c2)C(=O)N(C2CCC(=O)NC2=O)C3=O)nc1` (centres unmarked) [A127], for which the inhibition at 1 µM at c-Myc protein is 60 to 90%. In addition, the IC50 with HL60 cells amounted to 3.6 ± 0.1 nM.

Regarding `O=C(Cc1cccc2ccccc12)NCc1ccc(CNC(=O)c2ccc3c(c2)C(=O)N(C2CCC(=O)NC2=O)C3=O)cn1` (centres unmarked) [A128], the inhibition at 1 µM on c-Myc protein is 10 to 30%. In the assay on HL60 cells, the IC50 stood at 2140 ± 788 nM.

`O=C(Cn1c2ccccc2c2cccnc21)NCc1ccc(CNC(=O)c2ccc3c(c2)C(=O)N(C2CCC(=O)NC2=O)C3=O)cn1` (centres unmarked) [A129]: the inhibition at 1 µM at c-Myc protein lay in the range of 60 to 90%. The IC50 in the assay with HL60 cells was 36.1 ± 13.3 nM.

As for `CN(CCn1c2ccccc2c2cccnc21)Cc1ccc(CNC(=O)c2ccc3c(c2)C(=O)N(C2CCC(=O)NC2=O)C3=O)cn1` (centres unmarked) [A130], the inhibition at 1 µM at c-Myc protein was in the range of 60 to 90%. Further, the IC50 in the assay on HL60 cells is 4.7 ± 2.3 nM.

In the case of `O=C(Cn1c2ccccc2c2cccnc21)NCc1cnc(CNC(=O)c2ccc3c(c2)C(=O)N(C2CCC(=O)NC2=O)C3=O)nc1` (centres unmarked) [A131], at c-Myc protein, the inhibition at 1 µM was in the range of 60 to 90%. Moreover, the IC50 with HL60 cells amounted to 112 ± 16.5 nM.

Consider `O=C(Cn1c2ccccc2c2cccnc21)NCc1ncc(CNC(=O)c2ccc3c(c2)C(=O)N(C2CCC(=O)NC2=O)C3=O)cn1` (centres unmarked) [A132], for which, on c-Myc protein, the inhibition at 1 µM was 10 to 30%. For the same molecule, the IC50 with HL60 cells is 4210 ± 659 nM.

Turning to `O=C(Cc1cccc2ccccc12)NCc1cnc(CNC(=O)c2ccc3c(c2)C(=O)N(C2CCC(=O)NC2=O)C3=O)s1` (centres unmarked) [A133], at c-Myc protein, the inhibition at 1 µM lay within 10 to 30%. The IC50 in the assay on HL60 cells was 5020 ± 23 nM.

As to `O=C(Cn1c2ccccc2c2cccnc21)NCc1cnc(CNC(=O)c2ccc3c(c2)C(=O)N(C2CCC(=O)NC2=O)C3=O)s1` (centres unmarked) [A134], the inhibition at 1 µM on c-Myc protein fell in the range of 60 to 90%. Moreover, the IC50 in the assay on HL60 cells was found to be 334 ± 83.5 nM.

Take `O=C(Cc1cccc2ccccc12)NCc1csc(CNC(=O)c2ccc3c(c2)C(=O)N(C2CCC(=O)NC2=O)C3=O)n1` (centres unmarked) [A135]: the inhibition at 1 µM on c-Myc protein lay within 30 to 60%. For the same molecule, in the assay on HL60 cells, the IC50 is 1710 ± 120 nM.

`O=C(Cn1c2ccccc2c2cccnc21)NCc1csc(CNC(=O)c2ccc3c(c2)C(=O)N(C2CCC(=O)NC2=O)C3=O)n1` (centres unmarked) [A136]: on c-Myc protein, the inhibition at 1 µM was in the range of 60 to 90%. Moreover, in the assay with HL60 cells, the IC50 stood at 211 ± 45.9 nM.

As for `O=C(Cc1cccc2ccccc12)NCc1ccc(C2(NC(=O)c3ccc4c(c3)C(=O)N(C3CCC(=O)NC3=O)C4=O)CC2)cc1` (centres unmarked) [A137], the inhibition at 1 µM at c-Myc protein lay within 60 to 90%. For the same molecule, the IC50 with HL60 cells was 239 ± 35 nM.

Turning to `O=C(Cn1c2ccccc2c2cccnc21)NCc1ccc(C2(NC(=O)c3ccc4c(c3)C(=O)N(C3CCC(=O)NC3=O)C4=O)CC2)cc1` (centres unmarked) [A138], the inhibition at 1 µM on c-Myc protein was in the range of 60 to 90%. Moreover, in the assay with HL60 cells, the IC50 is 12.4 ± 4.4 nM.

Turning to `CN(CCc1cccc2ccccc12)Cc1ccc(C2(NC(=O)c3ccc4c(c3)C(=O)N(C3CCC(=O)NC3=O)C4=O)CC2)cc1` (centres unmarked) [A139], at c-Myc protein, the inhibition at 1 µM lay in the range of 60 to 90%. For the same molecule, the IC50 in the assay on HL60 cells was 22.5 ± 14.3 nM.

Turning to `CN(CCn1c2ccccc2c2cccnc21)Cc1ccc(C2(NC(=O)c3ccc4c(c3)C(=O)N(C3CCC(=O)NC3=O)C4=O)CC2)cc1` (centres unmarked) [A140], at c-Myc protein, the inhibition at 1 µM was 60 to 90%. Also, the IC50 in the assay on HL60 cells was found to be 11 ± 1.7 nM.

For the molecule `O=C1CCC(N2C(=O)c3ccc(C(=O)NCc4ccc(C5(NC(=O)Cc6cccc7ccccc67)CC5)cc4)cc3C2=O)C(=O)N1` (centres unmarked) [A141], on c-Myc protein, the inhibition at 1 µM lay in the range of 60 to 90%. The IC50 with HL60 cells was 6.5 ± 0.3 nM.

On to `O=C1CCC(N2C(=O)c3ccc(C(=O)NCc4ccc(C5(NC(=O)Cn6c7ccccc7c7cccnc76)CC5)cc4)cc3C2=O)C(=O)N1` (centres unmarked) [A142], for which the inhibition at 1 µM at c-Myc protein lay in the range of 60 to 90%. The IC50 with HL60 cells was found to be 6.1 ± 0.9 nM.

For `CN(CCc1cccc2ccccc12)C1(c2ccc(CNC(=O)c3ccc4c(c3)C(=O)N(C3CCC(=O)NC3=O)C4=O)cc2)CC1` (centres unmarked) [A143], the inhibition at 1 µM at c-Myc protein fell in the range of 60 to 90%. The IC50 with HL60 cells was found to be 22.9 ± 3 nM.
